“Also recorded” adds a separate entry of the source.

The subject of assay [1] is pancreatic acini. In words: Basal relocation of cortactin and actin in suprastimulated acini (immunofluorescence). The assay is classed as cell-based, mice. As to conditions: 10 nM CCK. As for the experimental part: (§1) Acini were harvested in a buffer containing 20 mM HEPES (pH 7.4), 120 mM NaCl, 5 mM KCl, 1 mM MgCl2, 1 mM CaCl2, 10 mM glucose, 10 mM sodium pyruvate, 0.1% bovine serum albumin, and 0.01% soybean trypsin inhibitor with 100 units/mL collagenase, as described elsewhere (Torgerson and McNiven, J. […] Viability prior to use was >95% by trypan blue exclusion. The harvested acini were used as described elsewhere (Torgerson and McNiven, J. Cell Sci., 111 (Pt. 19):2911-22 (1998)).
(§2) Acini were plated on plain glass coverslips as described elsewhere (Torgerson and McNiven, J. Cell Sci., 111 (Pt. 19):2911-22 (1998)), fixed with 2% paraformaldehyde, and permeabilized with 0.6% Triton X-100. The acini were then blocked with 5% normal goat serum followed by incubation with the primary antibodies (4F11 diluted 1/1000, SC-18 diluted 1/300, or anti-Yes diluted 1/1000) for one hour at room temperature followed by washing and incubation with secondary antibodies ( 1/500) with or without rhodamine phalloidin (100 nM) for 30 minutes. The acini were then washed and mounted using Prolong gold. Acini with 6-12 cells were randomly chosen for imaging. The number of blebs was counted along with the number of cells, and expressed as bleb number per 100 cells. The final number expressed as mean±SEM was from at least three different experiments. […]

The next assay concerns Src. Kind of assay: Cortactin tyrosine phosphorylation in pancreatic acini suprastimulated with 10 nM CCK (immunoprecipitation, 4G10 western blot). The assay is classed as cell-based, mice. As to the method: as §1
(§3) Acini or tissue were homogenized in a buffer containing 50 mM Tris (pH 7.2), 150 mM NaCl, 0.5 mM EDTA, 1 mM EGTA, 2 mM DTT, 1 mM sodium orthovanadate, 25 mM NaF, and 1% NP-40, using a protease inhibitor cocktail (Complete; Cat. # 1873580; Roche) to prevent proteolysis. […] After Western blotting using appropriate protocols and dilutions of antibodies ( 1/100000 for AB3, 1/1000 for 4G10, 1/500 for SC-18, 1/1000 for PY416, 1/5000 for Yes, 1/200 for H-12 (c-Src), 1/200 for fyn, and 1/200 for Lyn) as recommended by the manufacturer, band intensity was quantified using Adobe Photoshop 6.0, and backgrounds were subtracted for the appropriate lanes. […] Quantification was performed from two or more experiments. […]
On the technique in general: In western blotting, separated proteins are transferred to a membrane and probed.

Assay [2] has as its system pancreatic acini. In words: Suprastimulation-induced blebbing of acini (bleb number per 100 cells). The assay is classed as cell-based, mice. The settings on record: 10 nM CCK, 94.2±4.1% without inhibitor, mean±SEM. As for the experimental part:
as §1, §2

Assay [3] deals with suprastimulation-induced pancreatitis. Kind of assay: Caerulein-induced pancreatitis in vivo. Also noted: species or system mice. The text has this:
Male 100-120 gm Sprauge Dawley (Harlan Laboratories, Indianapolis, Ind.) mice that were housed and fed under standard conditions were used. Caerulein, the CCK analog, was obtained from Research Plus (Bayonne, N.J.). Antibodies to phosphotyrosine (4G10) and cortactin (4F11) antibodies were obtained from Upstate (Charlottesville, Va.). Pan Src antibody (SC-18), Fyn (SC-16) and c-Src antibody H-12 were obtained from Santa Cruz (Santa Cruz, Calif.), and active Src (PY416), Yes and Lyn antibodies were obtained from Transduction Labs (Lexington, Ky.). Polyclonal antibody to cortactin (AB3) was produced as described elsewhere (Cao et al., Mol. Cell Biol., 23(6):2162-2170 (2003)). Secondary antibodies for immunofluorescence (Alexa 488 and Alexa 594) and Prolong gold were obtained from Invitrogen Corporation (Carlsbad, Calif.). Secondary antibodies for western blotting (goat anti-rabbit and goat anti-mouse HRP) were obtained from Affinity Bioreagents (Golden, Colo.). Collagenase type IV was obtained from Worthington Biochemical Corporation (Lakewood, N.J.). PP2 and SU6656 were obtained from Calbiochem (San Diego, Calif.) and were dissolved as a 1000× stock in DMSO. All other reagents were purchased from Sigma.
Animals (6 animals in each group) were given a single intraperitoneal injection of saline (control) or caerulein (20 μg/kg) in saline as described elsewhere (Bhagat et al., Gastroenterology, 122(1): 156-165 (2002)). After 6 hours, blood and tissue samples were harvested and frozen or fixed in 4% formaldehyde. When used, PP2 was dissolved in DMSO and given at a dose of 3 mg/kg in a 0.1-mL volume intraperitoneally 30 minutes before caerulein. Animals pretreated with vehicle were given DMSO only.
Five μm sections of paraffin-embedded pancreas and lung were stained with hematoxylin/eosin (H&E). For immunohistochemistry of pancreas, 5 μm sections were made from OCT embedded tissue, fixed with 4% paraformaldehyde, and immunostained as described herein. Serum amylase activity was measured colorimetrically using the Phadebas assay (Pharmacia Diagnostics, Portage, Mich.). Edema was measured by subtracting the dry weight from the wet weight and presented as a percentage of wet weight.
The results reported represent the mean±SEM of values obtained from three or more experiments and compared using Student's t test when the data consisted of only two groups or ANOVA when comparing three or more groups. If ANOVA indicated a significant difference, the data were analyzed by using Tukey's method as a post-hoc test for the difference between groups. A p value of 0.05 was considered significant.

A further assay deals with Src-cortactin complex. In words: Dissociation of the Src-cortactin complex after 10 nM CCK (Src immunoprecipitation, blot for cortactin). Type of assay: cell-based, mice. The settings on record: 2 minutes, PP2 pre-incubation. As for the experimental part: Acini were harvested in a buffer containing 20 mM HEPES (pH 7.4), 120 mM NaCl, 5 mM KCl, 1 mM MgCl2, 1 mM CaCl2, 10 mM glucose, 10 mM sodium pyruvate, 0.1% bovine serum albumin, and 0.01% soybean trypsin inhibitor with 100 units/mL collagenase, as described elsewhere (Torgerson and McNiven, J. Cell Sci., 111 (Pt. 19):2911-22 (1998)) were filtered through a 70 μm mesh and kept at 37° C. for two hours before use during which time these were pre-incubated with 20 μM of inhibitors (PP2 or SU6656), if necessary. Viability prior to use was >95% by trypan blue exclusion. The harvested acini were used as described elsewhere (Torgerson and McNiven, J. Cell Sci., 111 (Pt. 19):2911-22 (1998)).
as §3

Turning to `CN(C)S(=O)(=O)c1ccc2c(c1)/C(=C/c1cc3c([nH]1)CCCC3)C(=O)N2` [SU6656], the “basal relocation of cortactin and actin” value with pancreatic acini [1] (SU6656 10 μM) was “prevented the basal relocation of cortactin”. The cortactin phosphorylation result with Src (acini pre-incubated with SU6656 at 10 μM) is “completely prevented cortactin phosphorylation”. Moreover, the blebbing in the assay with pancreatic acini [2] (SU6656 10 μM) was 21.0±6.0%.
`CC(C)(C)n1nc(-c2ccc(Cl)cc2)c2c(N)ncnc21` [PP2]: the “basal relocation of cortactin and actin” value in the assay on pancreatic acini [1] (PP2 20 μM) is “prevented this basal relocation of cortactin; also recorded: prevented the basal relocation of cortactin”. The “cortactin phosphorylation in pancreas in vivo” value in assay [3] (3 mg/kg PP2 intraperitoneally 30 minutes before 20 μg/kg caerulein, preliminary data) is reported as “adequate to inhibit cortactin phosphorylation”. In addition, the “increase in serum amylase over controls” value in assay [3] (PP2 3 mg/kg ip 30 minutes before caerulein 20 μg/kg, 6 hours, CER+Veh 4.8±0.5 fold, p <0.02) is reported as 2.4±0.2 fold. Besides, in assay [3] (PP2 3 mg/kg ip 30 minutes before caerulein 20 μg/kg, 6 hours, CER+Veh 81.1±0.8%, control 75.1±0.5%, p<0.05), the “pancreatic edema as measured by water content” value is 76.7±0.6%. In addition, the “morphology of the pancreas (vacuolation, blebbing-like fragmentation, apoptosis, interstitial edema, inflammatory cells; H&E)” value in assay [3] (PP2 3 mg/kg ip 30 minutes before caerulein, 6 hours) is recorded as “dramatically prevented these phenomena”. For the same compound, the “basolateral relocation of actin and cortactin in pancreas cryosections” value in assay [3] (PP2 3 mg/kg prophylactically) is on record as “prevented this basolateral relocation”. Moreover, the cortactin phosphorylation result in the assay on Src (acini pre-incubated with PP2 at 20 μM) is listed as “completely prevented cortactin phosphorylation”. In the assay on pancreatic acini [2] (PP2 20 μM), this compound gave a blebbing of 16.9±6.0%. The “dissociation of the Src-cortactin complex” value in the assay on Src-cortactin complex is recorded as “prevented”.

Source of the values: US20100160339A1, “TREATING PANCREATITIS” (MAYO FOUNDATION FOR MEDICAL EDUCATION AND RESEARCH, priority 2007, published 2010).
